Experimental data published in patent US12110279B2, “Triazolones, tetrazolones, and imidazolones, or their salts, and pharmaceutical compositions comprising the same” (Yuhan Corporation, priority 2021, dated 2024).
Counter-ions that a name gives are not always drawn. Like-named read-outs stand apart in the source and are kept apart here.

Key:
Assay type in all cases: biochemical
[1] = molecular target: T1, recombinant human VAP-1 (Homo sapiens, UniProt Q16853); experiment: Amplex Red HRP-coupled amine oxidase activity evaluation, recombinant human VAP-1; settings: substrate 1 mM benzylamine; 30 min preincubation at 37° C.; read-out: Inhibitory Activity (IC50, nM) human VAP-1
T1 construct: purchased R&D systems
T1 sequence (Q16853 1-763): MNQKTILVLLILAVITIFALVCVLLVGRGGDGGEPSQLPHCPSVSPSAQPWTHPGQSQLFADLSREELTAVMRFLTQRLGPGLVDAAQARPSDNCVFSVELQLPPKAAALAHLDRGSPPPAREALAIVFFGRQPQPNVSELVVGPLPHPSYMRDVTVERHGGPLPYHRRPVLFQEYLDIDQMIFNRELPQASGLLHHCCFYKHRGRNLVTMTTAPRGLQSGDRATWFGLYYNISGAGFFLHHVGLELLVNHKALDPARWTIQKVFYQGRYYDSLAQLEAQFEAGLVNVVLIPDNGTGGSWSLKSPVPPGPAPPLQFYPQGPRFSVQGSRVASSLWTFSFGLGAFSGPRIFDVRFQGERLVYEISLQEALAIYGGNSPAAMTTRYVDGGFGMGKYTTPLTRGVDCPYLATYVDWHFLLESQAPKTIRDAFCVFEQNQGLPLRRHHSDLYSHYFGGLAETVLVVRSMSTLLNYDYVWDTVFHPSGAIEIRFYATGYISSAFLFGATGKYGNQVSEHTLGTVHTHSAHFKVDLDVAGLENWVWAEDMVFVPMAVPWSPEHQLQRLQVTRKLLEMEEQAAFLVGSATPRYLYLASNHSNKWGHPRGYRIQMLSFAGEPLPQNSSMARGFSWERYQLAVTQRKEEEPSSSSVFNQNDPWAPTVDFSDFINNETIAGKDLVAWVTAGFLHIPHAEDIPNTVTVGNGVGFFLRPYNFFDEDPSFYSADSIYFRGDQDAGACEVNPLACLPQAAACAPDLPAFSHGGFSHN
Protocol: (§1) The compounds according to the present technology were evaluated in terms of activity on recombinant human VAP-1 (R&D systems) by measuring the level of hydrogen peroxide in horseradish peroxidase (HRP)-coupled reaction using Amplex Red Hydrogen Peroxide Assay Kit (Molecular Probes, Invitrogen, USA). The experiment was carried out at room temperature using benzylamine as a substrate. In the HRP-coupled reaction, hydrogen peroxide oxidation of 10-acetyl-3,7-dihydroxyphenoxazine (Amplex Red reagent) produces resorufin, which is a highly fluorescent compound. Briefly, the test compound was dissolved in dimethyl sulfoxide (DMSO) at a concentration of 20 mM. The dose-response assessment was made by 1:3 serial dilution in DMSO, thereby creating an 8-point curve. The concentration of the upper part was controlled according to the efficacy of the compounds, followed by dilution with a reaction buffer solution to obtain a final DMSO concentration of less than 1%. To each well of a 96 black well plate, human VAP-1 purified in 50 mM sodium phosphate buffer solution (pH7.4) was added. The test compounds dissolved in DMSO were incubated with the human VAP-1 enzymes at 37° C. for 30 minutes. After 30-minute incubation, each well was added with a reaction mixture containing 200 uM Amplex Red reagent prepared from 50 mM sodium phosphate buffer solution (pH 7.4), 1 mM benzylamine, and 1 U/mL HRP. Fluorescence intensity was measured at several time points during 1-2 hours using a microplate reader (Flexstation3, Molecular Devices) under the wavelength condition exciting at 544 nm and reading the emission at 590 nm. The inhibitory effect of the compounds was measured as a decrease (%) in the signal rate as compared to the control group without any inhibitor (only diluted DMSO). Data was fixed to a logistic model with four variables and IC50 value was calculated using GraphPad Prism program.

[2] = molecular target: T2, recombinant human MAO-B (monoamine oxidase-B) (Homo sapiens, UniProt P27338); experiment: Amplex Red HRP-coupled amine oxidase activity evaluation, recombinant human MAO-B; settings: substrate 1 mM benzylamine; read-out: Inhibitory Activity (IC50, nM) MAO-B
T2 construct: purchased Sigma-Aldrich
T2 sequence (P27338 1-520): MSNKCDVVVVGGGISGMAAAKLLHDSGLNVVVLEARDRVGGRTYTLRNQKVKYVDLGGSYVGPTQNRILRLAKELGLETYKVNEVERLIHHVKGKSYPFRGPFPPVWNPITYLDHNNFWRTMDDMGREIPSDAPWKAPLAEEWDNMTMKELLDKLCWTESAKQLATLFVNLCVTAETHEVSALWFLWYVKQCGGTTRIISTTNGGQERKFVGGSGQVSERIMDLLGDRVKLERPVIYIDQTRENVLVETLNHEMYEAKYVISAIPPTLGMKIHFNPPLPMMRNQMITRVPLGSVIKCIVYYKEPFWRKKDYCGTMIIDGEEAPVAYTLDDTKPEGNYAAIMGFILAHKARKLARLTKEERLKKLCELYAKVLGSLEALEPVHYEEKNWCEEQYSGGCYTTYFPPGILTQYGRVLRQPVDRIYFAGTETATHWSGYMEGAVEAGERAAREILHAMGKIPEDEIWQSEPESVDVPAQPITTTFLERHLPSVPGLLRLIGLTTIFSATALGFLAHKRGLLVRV
Protocol: [The source words this procedure for another target and says it was used here with some conditions changed.] as §1

[3] = molecular target: T3, recombinant human DAO (diamine oxidase) (Homo sapiens, UniProt P19801); experiment: Amplex Red HRP-coupled amine oxidase activity evaluation, recombinant human DAO
T3 construct: purchased R&D systems
T3 sequence (P19801 20-751): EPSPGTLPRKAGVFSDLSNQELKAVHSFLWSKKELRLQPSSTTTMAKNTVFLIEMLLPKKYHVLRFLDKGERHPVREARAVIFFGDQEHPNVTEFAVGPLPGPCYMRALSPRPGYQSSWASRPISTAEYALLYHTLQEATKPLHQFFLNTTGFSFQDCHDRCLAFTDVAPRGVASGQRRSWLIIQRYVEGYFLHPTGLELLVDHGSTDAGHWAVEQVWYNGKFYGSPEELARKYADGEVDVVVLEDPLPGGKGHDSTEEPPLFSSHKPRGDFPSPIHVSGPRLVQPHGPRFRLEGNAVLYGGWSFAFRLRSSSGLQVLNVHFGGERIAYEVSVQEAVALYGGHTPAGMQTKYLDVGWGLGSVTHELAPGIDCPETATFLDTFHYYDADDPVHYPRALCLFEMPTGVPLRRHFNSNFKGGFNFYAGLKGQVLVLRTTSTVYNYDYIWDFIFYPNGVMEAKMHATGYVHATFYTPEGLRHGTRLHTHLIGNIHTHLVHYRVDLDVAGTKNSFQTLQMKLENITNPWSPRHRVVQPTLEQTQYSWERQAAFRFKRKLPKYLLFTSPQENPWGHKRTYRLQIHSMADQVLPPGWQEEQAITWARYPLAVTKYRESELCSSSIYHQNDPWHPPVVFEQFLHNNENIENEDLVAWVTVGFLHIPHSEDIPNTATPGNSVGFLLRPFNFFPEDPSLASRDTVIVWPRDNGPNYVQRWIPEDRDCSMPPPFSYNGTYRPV
Protocol: [The source words this procedure for another target and says it was used here with some conditions changed.] as §1

[4] = molecular target: T4, recombinant human MAO-A (monoamine oxidase-A) (Homo sapiens, UniProt P21397); experiment: Amplex Red HRP-coupled amine oxidase activity evaluation, recombinant human MAO-A; settings: substrate 0.5 mM tyramine; read-out: Inhibitory Activity (IC50, nM) MAO-A
T4 construct: purchased Sigma-Aldrich
T4 sequence (P21397 1-527): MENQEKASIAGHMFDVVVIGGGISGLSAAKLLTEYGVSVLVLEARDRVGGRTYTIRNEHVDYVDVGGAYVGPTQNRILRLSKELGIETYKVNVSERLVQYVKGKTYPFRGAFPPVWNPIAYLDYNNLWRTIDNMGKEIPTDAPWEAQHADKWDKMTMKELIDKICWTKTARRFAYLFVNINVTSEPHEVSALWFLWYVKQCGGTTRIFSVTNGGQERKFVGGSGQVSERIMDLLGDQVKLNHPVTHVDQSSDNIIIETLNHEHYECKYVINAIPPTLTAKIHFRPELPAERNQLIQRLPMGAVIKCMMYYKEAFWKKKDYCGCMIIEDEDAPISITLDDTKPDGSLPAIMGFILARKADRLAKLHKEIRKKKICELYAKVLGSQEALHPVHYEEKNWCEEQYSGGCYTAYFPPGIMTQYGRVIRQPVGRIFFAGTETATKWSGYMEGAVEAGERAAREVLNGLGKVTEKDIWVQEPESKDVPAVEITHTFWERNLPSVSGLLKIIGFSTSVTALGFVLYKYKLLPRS
Protocol: [The source words this procedure for another target and says it was used here with some conditions changed.] as §1

[5] = substrate 1 mM putrescine, read-out: Inhibitory Activity (IC50, nM) DAO

IC50 [1] [nM] | IC50 [2] [nM] | IC50 [3, 5] [nM] | IC50 [4] [nM] | IC50 [3] [nM] | Compound
> 100 | > 100000 | > 100000 | > 100000 |  | CCn1cc(-c2ccc(C)c(-n3nnn(CC(CN)=C(F)F)c3=O)n2)ccc1=O [Example 24, 5-[6-[4-[2-(aminomethyl)-3,3-difluoro-allyl]-5-oxo-tetrazol-1-yl]-5-methyl-2-pyridyl]-1-ethyl-pyridin-2-one trifluoroacetate]
13 | > 100000 |  | > 100000 | 1110 | Cc1ccc(-c2cc(C)c3c(c2)CCC(=O)N3)nc1-n1nnn(CC(CN)=C(F)F)c1=O [Example 25, 6-[6-[4-[2-(aminomethyl)-3,3-difluoro-allyl]-5-oxo-tetrazol-1-yl]-5-methyl-2-pyridyl]-8-methyl-3,4-dihydro-1H-quinolin-2-one trifluoroacetate]
19 | > 100000 |  | > 100000 | 4370 | Cc1ccc(-c2ccc3c(c2)CCC(=O)N3C)nc1-n1nnn(CC(CN)=C(F)F)c1=O [Example 26, 6-[6-[4-[2-(aminomethyl)-3,3-difluoro-allyl]-5-oxo-tetrazol-1-yl]-5-methyl-2-pyridyl]-1-methyl-3,4-dihydroquinolin-2-one trifluoroacetate]
0.6 | 9000 | 127 | 82100 |  | Cc1cc(-c2cccc(Cn3nnn(CC(CN)=C(F)F)c3=O)c2)cc2c1NC(=O)CC2 [Example 31, 6-[3-[[4-[2-(aminomethyl)-3,3-difluoro-allyl]-5-oxo-tetrazol-1-yl]methyl]phenyl]-8-methyl-3,4-dihydro-1H-quinolin-2-one trifluoroacetate]
0.3 | 3990 | 122 | 81400 |  | CN1C(=O)CCc2cc(-c3cccc(Cn4nnn(CC(CN)=C(F)F)c4=O)c3)ccc21 [Example 33, 6-[3-[[4-[2-(aminomethyl)-3,3-difluoro-allyl]-5-oxo-tetrazol-1-yl]methyl]phenyl]-1-methyl-3,4-dihydroquinolin-2-one trifluoroacetate]

The remaining lines, values behind:

Compound | IC50 [1] [nM] | IC50 [2] [nM] | IC50 [3, 5] [nM] | IC50 [4] [nM] | IC50 [3] [nM]
CS(=O)(=O)c1ccc(-c2cccc(Cn3nnn(CC(CN)=C(F)F)c3=O)c2)cc1 [Example 27, 1-[2-(aminomethyl)-3,3-difluoro-allyl]-4-[[3-(4-methylsulfonylphenyl)phenyl]methyl]tetrazol-5-one trifluoroacetate] | 1 | 48400 | 513 | > 100000 | 
NCC(Cn1nnn(Cc2cccc(-c3ccc(N4CCNCC4)cc3)c2)c1=O)=C(F)F [Example 28, 1-[2-(aminomethyl)-3,3-difluoro-allyl]-4-[[3-(4-piperazin-1-ylphenyl)phenyl]methyl]tetrazol-5-one di-trifluoroacetate] | 1.8 | 35800 | 5160 | 33000 | 
CN(C)c1ccc(-c2cccc(Cn3nnn(CC(CN)=C(F)F)c3=O)c2)cn1 [Example 29, 1-[2-(aminomethyl)-3,3-difluoro-allyl]-4-[[3-[6-(dimethylamino)-3-pyridyl]phenyl]methyl]tetrazol-5-one trifluoroacetate] | 0.7 | 14300 | 159 | 80100 | 
NCC(Cn1nnn(Cc2cccc(-c3ccc4c(c3)OCO4)c2)c1=O)=C(F)F [Example 30, 1-[2-(aminomethyl)-3,3-difluoro-allyl]-4-[[3-(1,3-benzodioxol-5-yl)phenyl]methyl]tetrazol-5-one trifluoroacetate] | 0.8 | 206 | 1500 | 70900 | 
CCn1cc(-c2cccc(Cn3nnn(CC(CN)=C(F)F)c3=O)c2)cn1 [Example 32, 1-[2-(aminomethyl)-3,3-difluoro-allyl]-4-[[3-(1-ethylpyrazol-4-yl)phenyl]methyl]tetrazol-5-one trifluoroacetate] | 0.4 | 2320 | 811 | > 100000 | 
